Read-outs that look alike come from different tables or passages of the source.

Results on 4 molecules are retold here after publication PMC6652007, “Metabolic engineering of Clostridium thermocellum for n-butanol production from cellulose” (Biotechnology for Biofuels, 2019).

In assay [1] the target is T1, Tt_Hbd (Thermoanaerobacterium thermosaccharolyticum, UniProt P77851, D31A/I32R, form not given).
T1 construct: gene hbd; His-tagged (vector pD861-CH), codon-optimised, expressed in E. coli BL21(DE3)
Put plainly: NAD(P)H oxidation, A340. The class given is biochemical. To be noted: acetoacetyl-CoA as substrate, 100 mM MOPS-KOH pH 7.5, 55 °C. An excerpt: NAD(P)H oxidation, A340 on Tt_Hbd

For assay [2], the system named is T2, Ts_Bad.
T2 construct: gene bad; His-tagged (vector pD861-CH), codon-optimised, expressed in E. coli BL21(DE3), purified anaerobically
Put plainly: NADH oxidation, A340. To be noted: 0.3 mM NADH, 100 mM MOPS-KOH pH 7.5, 55 °C, anaerobic. The class given is biochemical, Thermoanaerobacter sp. (strain X514). An excerpt: NADH oxidation, A340 on Ts_Bad

T1 sequence (P77851 whole entry D31A/I32R, form open): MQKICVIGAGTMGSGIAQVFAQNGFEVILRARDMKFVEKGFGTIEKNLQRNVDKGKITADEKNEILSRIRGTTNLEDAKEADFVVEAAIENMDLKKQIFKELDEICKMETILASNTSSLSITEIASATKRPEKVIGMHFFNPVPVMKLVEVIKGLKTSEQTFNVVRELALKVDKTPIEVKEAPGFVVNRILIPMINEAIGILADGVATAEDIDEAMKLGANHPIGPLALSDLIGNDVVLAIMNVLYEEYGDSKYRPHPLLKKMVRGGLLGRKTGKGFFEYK

Consider `NC(=O)C1=CN([C@@H]2O[C@H](COP(=O)(O)OP(=O)(O)OC[C@H]3O[C@@H](n4cnc5c(N)ncnc54)[C@H](OP(=O)(O)O)[C@@H]3O)[C@@H](O)[C@H]2O)C=CC1` [NADPH], for which the Km in assay [1] (read-out: NADPH / Km) stood at 30 ± 10 µM.

As to `NC(=O)C1=CN([C@@H]2O[C@H](COP(=O)(O)OP(=O)(O)OC[C@H]3O[C@@H](n4cnc5c(N)ncnc54)[C@H](O)[C@@H]3O)[C@@H](O)[C@H]2O)C=CC1` [NADH], the Km in assay [1] (read-out: NADH / Km) came out at 110 ± 20 µM.

Turning to `CCCC(=O)SCCNC(=O)CCNC(=O)[C@H](O)C(C)(C)COP(=O)(O)OP(=O)(O)OC[C@H]1O[C@@H](n2cnc3c(N)ncnc32)[C@H](O)[C@@H]1OP(=O)(O)O` [Butyryl-CoA], the Km in assay [2] is 200 ± 100 µM.

`CC(=O)SCCNC(=O)CCNC(=O)[C@H](O)C(C)(C)COP(=O)(O)OP(=O)(O)OC[C@H]1O[C@@H](n2cnc3c(N)ncnc32)[C@H](O)[C@@H]1OP(=O)(O)O` [Acetyl-CoA]: the Km in assay [2] came out at 90 ± 10 µM.
